Values after ≈ are worked out from the molar mass of the structure shown.
Test system: Mycobacterium tuberculosis
Experiment: Antimycobacterial activity against multi-drug resistant Mycobacterium tuberculosis
Format: functional

| Compound | MIC [µg/mL] |
| --- | --- |
| COc1c(N2CCN(Cn3c(O)c(/N=N/C(=O)c4ccncc4)c4cc(Cl)ccc43)C(C)C2)c(F)cc2c(=O)c(C(=O)O)cn(C3CC3)c12 (configuration not stated) | 0.78 (≈ 1.13 µM) |
| COc1c(N2CCNC(C)C2)c(F)cc2c(=O)c(C(=O)O)cn(C3CC3)c12 (configuration not stated) [GATIFLOXACIN] | 3.12 (≈ 8.31 µM) |
| COc1c(N2CCN(Cn3c(O)c(/N=N/C(=N)S)c4cc(C)ccc43)C(C)C2)c(F)cc2c(=O)c(C(=O)O)cn(C3CC3)c12 (configuration not stated) | 0.78 (≈ 1.25 µM) |
| COc1c(N2CCN(Cn3c(O)c(/N=N/C(N)=O)c4cc(F)ccc43)C(C)C2)c(F)cc2c(=O)c(C(=O)O)cn(C3CC3)c12 (configuration not stated) | 0.2 (≈ 0.328 µM) |
| COc1c(N2CCN(CN3C(=O)/C(=N\c4ccc(S(=O)(=O)Nc5ncccn5)cc4)c4cc(F)ccc43)C(C)C2)c(F)cc2c(=O)c(C(=O)O)cn(C3CC3)c12 (configuration not stated) | 0.1 (≈ 0.127 µM) |
| COc1c(N2CCN(Cn3c(O)c(/N=N/C(=O)c4ccncc4)c4ccccc43)C(C)C2)c(F)cc2c(=O)c(C(=O)O)cn(C3CC3)c12 (configuration not stated) | 0.2 (≈ 0.306 µM) |
| COc1c(N2CCN(CN3C(=O)/C(=N\c4ccc(S(=O)(=O)Nc5ncccn5)cc4)c4cc(Cl)ccc43)C(C)C2)c(F)cc2c(=O)c(C(=O)O)cn(C3CC3)c12 (configuration not stated) | 0.1 (≈ 0.125 µM) |
| COc1c(N2CCN(Cn3c(O)c(/N=N/C(=N)S)c4ccccc43)C(C)C2)c(F)cc2c(=O)c(C(=O)O)cn(C3CC3)c12 (configuration not stated) | 0.2 (≈ 0.329 µM) |
| COc1c(N2CCN(Cn3c(O)c(/N=N/C(=N)S)c4cc(Cl)ccc43)C(C)C2)c(F)cc2c(=O)c(C(=O)O)cn(C3CC3)c12 (configuration not stated) | 0.78 (≈ 1.21 µM) |
| COc1c(N2CCN(Cn3c(O)c(/N=N/C(N)=O)c4cc(Cl)ccc43)C(C)C2)c(F)cc2c(=O)c(C(=O)O)cn(C3CC3)c12 (configuration not stated) | 0.78 (≈ 1.25 µM) |
| COc1c(N2CCN(Cn3c(O)c(/N=N/C(N)=O)c4ccccc43)C(C)C2)c(F)cc2c(=O)c(C(=O)O)cn(C3CC3)c12 (configuration not stated) | 0.05 (≈ 0.0845 µM) |
| COc1c(N2CCN(Cn3c(O)c(/N=N/C(=O)c4ccncc4)c4cc(C)ccc43)C(C)C2)c(F)cc2c(=O)c(C(=O)O)cn(C3CC3)c12 (configuration not stated) | 0.78 (≈ 1.17 µM) |
| COc1c(N2CCN(Cn3c(O)c(/N=N/C(N)=O)c4cc(C)ccc43)C(C)C2)c(F)cc2c(=O)c(C(=O)O)cn(C3CC3)c12 (configuration not stated) | 0.78 (≈ 1.29 µM) |
| COc1c(N2CCN(Cn3c(O)c(/N=N/C(=O)c4ccncc4)c4cc(F)ccc43)C(C)C2)c(F)cc2c(=O)c(C(=O)O)cn(C3CC3)c12 (configuration not stated) | 0.78 (≈ 1.16 µM) |
| COc1c(N2CCN(CN3C(=O)/C(=N\c4ccc(S(=O)(=O)Nc5ncccn5)cc4)c4cc(C)ccc43)C(C)C2)c(F)cc2c(=O)c(C(=O)O)cn(C3CC3)c12 (configuration not stated) | 0.78 (≈ 0.999 µM) |
| COc1c(N2CCN(CN3C(=O)/C(=N\c4ccc(S(=O)(=O)Nc5ncccn5)cc4)c4ccccc43)C(C)C2)c(F)cc2c(=O)c(C(=O)O)cn(C3CC3)c12 (configuration not stated) | 0.1 (≈ 0.13 µM) |
| COc1c(N2CCN(Cn3c(O)c(/N=N/C(=N)S)c4cc(F)ccc43)C(C)C2)c(F)cc2c(=O)c(C(=O)O)cn(C3CC3)c12 (configuration not stated) | 0.1 (≈ 0.16 µM) |
